Test results: article PMC9859815 (Scientific Reports, 2023)
Where two headings read alike, the source gives them in different places.

Assays:
[1] = Single-dose, 2-sequence, 2-period crossover pharmacokinetic/bioequivalence study, fasting oral administration, healthy Chinese subjects (also by CYP2C19 phenotype and gender); type: in vivo; details: human, plasma, mean ± SD
Procedure: Forty subjects were randomly divided into two groups, with 20 patients in each group. […] The subjects in each group fasted after 21:00 the night before administration. […] The blood samples were centrifuged at 1700 g (4 °C) for 10 min within 1 h of collection. The centrifuged plasma was immediately aliquoted into 2 tubes with corresponding labels (1 for testing, 1 for backup, the volume of plasma in each tube should not be less than 500 µL) and stored at […] until analysis. The total time from whole blood collection to centrifugation to separate plasma and then stored in […] refrigerator should not exceed 2 h.
The sample pretreatment method was the protein precipitation method.
Terminal elimination rate constant λz and the apparent terminal elimination half-life (T1/2) were also needed. AUC0–∞ (the AUC from time 0 to infinity) used the formula: AUC0–∞ = AUC0–t + Ct/λ(T1/2 = 0.693/λz) to calculate.
SAS 9.4 software was used for statistical analysis.

[2] = Pakistani, cited from earlier work
[3] = cited from earlier work

For `COc1ccc2[nH]c([S+]([O-])Cc3ncc(C)c(OC)c3C)nc2c1` (centres unmarked) [omeprazole], the AUC(0-t) ([1]; CYP2C19 EM (N = 12)) is given as 553 ± 391 ng·h/mL, the half-life ([1]; CYP2C19 PM (N = 4)) is given as 2.48 ± 0.24 h and the “AUC0–t” value ([2]; females) is given as 8740 ± 2230 ng·h/mL. For the same compound, the Cmax ([2]; females) was 2913 ± 610 ng/mL, the “AUC0–t” value ([2]; males) was 6670 ± 4320 ng·h/mL and the Cmax ([2]; males) was 2006 ± 980 ng/mL. For the same compound, the Cmax ([3]; CYP2C19 EM, Caucasians) was 285 ± 82.9 ng/mL, the T1/2 ([3]; CYP2C19 EM, Caucasians) was 0.71 ± 0.1 h and the “AUC0–t” value ([3]; CYP2C19 EM, Japanese) was 618.3 ± 141.9 ng·h/mL. For the same compound, the Cmax ([3]; CYP2C19 EM, Japanese) was 251.1 ± 46.2 ng/mL, the “AUC0–t” value ([3]; CYP2C19 EM, Korean) was 713.49 ± 555.56 ng·h/mL and the “AUC0–t” value ([3]; CYP2C19 EM, West Asian) was 250.5 ± 16.1 ng·h/mL. For the same compound, the Cmax ([3]; CYP2C19 EM, West Asians) was 152.4 ± 9.94 ng/mL, the T1/2 ([3]; CYP2C19 EM, West Asians) was 0.9 ± 0.01 h and the “AUC0–t” value ([3]; CYP2C19 EM, Whites) was 635.5 ± 259.7 ng·h/mL. The T1/2 ([3]; CYP2C19 PM, Caucasians) was 2.68 ± 0.3 h, the Cmax ([3]; CYP2C19 PM, East Asians (so in the source)) was 538.6 ± 33.5 ng/mL and the Cmax ([3]; CYP2C19 PM, Japanese) was 1070.2 ± 185.3 ng/mL. For the same compound, the T1/2 ([3]; CYP2C19 PM, Japanese) was 2.41 ± 0.15 h and the T1/2 ([3]; CYP2C19 PM, West Asians) was 2.42 ± 0.18 h.
